Experiments:
HCC38 (Breast Carcinoma) = assay: combination Emax (second highest fraction inhibited in the dose matrix, 72 h); higher = more inhibition; extreme values may be limits of the assay
Summary of the method: (§1)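 Bliss excess equals the observed combination effect minus the expected value EA + EB − EA·EB, where EA and EB are the effects of each agent alone. Combination Emax is the second-highest inhibition within the matrix. Inhibition was scaled from CellTiter-Glo 2.0 luminescence, with 0 set by vehicle wells and 1 by blank wells, after 72 hours of two-drug dosing of cells plated in 1536-well plates.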

[1] = tested on: TYK-nu (Ovarian Carcinoma); assay: as above
Summary of the method: as §1

[2] = tested on: ETK-1 (Biliary Tract Carcinoma); assay: as above
Summary of the method: as §1

[3] = tested on: HLE (Hepatocellular Carcinoma); assay: as above
Summary of the method: as §1

[4] = tested on: P31-FUJ (Acute Myeloid Leukemia); assay: as above
Summary of the method: as §1

[5] = tested on: BICR78 (Oral Cavity Carcinoma); assay: as above
Summary of the method: as §1

EW-22 (Ewing's Sarcoma) = assay: as above
Summary of the method: as §1

[6] = tested on: MES-SA (Other Solid Carcinomas); assay: as above
Summary of the method: as §1

[7] = tested on: WSU-DLCL2 (B-Cell Non-Hodgkin's Lymphoma); assay: as above
Summary of the method: as §1

[8] = tested on: YT (Other Blood Carcinomas); assay: as above
Summary of the method: as §1

[9] = tested on: 647-V (Bladder Carcinoma); assay: as above
Summary of the method: as §1

[10] = tested on: SK-UT-1 (Other Solid Carcinomas); assay: as above
Summary of the method: as §1

[11] = tested on: DOK (Oral Cavity Carcinoma); assay: as above
Summary of the method: as §1

[12] = tested on: SNG-M (Endometrial Carcinoma); assay: as above
Summary of the method: as §1

[13] = tested on: BICR78 (Oral Cavity Carcinoma); assay: Bliss excess, mean over the matrix (fraction); higher = more synergy
Summary of the method: as §1

[14] = tested on: MES-SA (Other Solid Carcinomas); assay: as above
Summary of the method: as §1

[15] = tested on: EKVX (Non-Small Cell Lung Carcinoma); assay: as above
Summary of the method: as §1

[16] = tested on: SK-LMS-1 (Other Solid Carcinomas); assay: as above
Summary of the method: as §1

[17] = tested on: HCT-116 (Colorectal Carcinoma); assay: as above
Summary of the method: as §1

[18] = tested on: JHH-6 (Hepatocellular Carcinoma); assay: as above
Summary of the method: as §1

SMILES	combination Emax (HCC38 (Breast Carcinoma))	combination Emax [1]	combination Emax [2]	combination Emax [3]	combination Emax [4]	combination Emax [5]	combination Emax (EW-22 (Ewing's Sarcoma))	combination Emax [6]	combination Emax [7]	combination Emax [8]	combination Emax [9]	combination Emax [10]	combination Emax [11]	combination Emax [12]	Bliss excess [13]	Bliss excess [14]	Bliss excess [15]	Bliss excess [16]	Bliss excess [17]	Bliss excess [18]
Cc1c2c(nn1C)CSCc1cc(n(C)n1)CSc1cc(c3ccccc3c1)OCCCc1c(C(=O)O)n(C)c3c-2c(Cl)ccc13 [AZD5991] + Cn1cnc2c(F)c(Nc3ccc(Br)cc3Cl)c(C(=O)NOCCO)cc21 [Selumetinib] (first compound max 1 µM, 7x7, partner max 3 µM)	0.33	0.513	0.311	0.326	0.998	0.441	0.566	0.23	1	1	0.91	0.164	0.903	0.233	-0.0106	-0.0247	-0.0474	-0.0257	-0.0049	-0.0116
Cc1c2c(nn1C)CSCc1cc(n(C)n1)CSc1cc(c3ccccc3c1)OCCCc1c(C(=O)O)n(C)c3c-2c(Cl)ccc13 [AZD5991] + Cc1cc2ncnn2cc1Nc1ncc2c(n1)n(C1CCOCC1)c(=O)n2C [AZD7648] (first compound max 1 µM, 7x7, partner max 10 µM)	0.335	0.412	0.294	0.515	0.965	0.219	0.504	0.221	1	1	0.719	0.282	0.421	0.299	-0.0172	0.0111	-0.069	-0.0392	0.013	-0.0622
CN(C)CCCOc1ccc(-c2ccc3ncc4c(c3c2)n(C2CCOCC2)c(=O)n4C)cn1 [AZD0156] + CCN(CCO)CCCOc1ccc2c(Nc3cc(CC(=O)Nc4cccc(F)c4)[nH]n3)ncnc2c1 [AZD2811] (first compound max 1 µM, 7x7, partner max 1 µM)	0.181	0.304	0.21	0.414	0.882	0.182	0.694	0.711	0.359	0.591	0.167	0.264	0.334	0.0754	-0.047	0.0836	-0.0473	0.0032	0.0233	-0.0083
Cc1cc2ncnn2cc1Nc1ncc2c(n1)n(C1CCOCC1)c(=O)n2C [AZD7648] + C=CCn1c(=O)c2cnc(Nc3ccc(N4CCN(C)CC4)cc3)nc2n1-c1cccc(C(C)(C)O)n1 [AZD1775] (first compound max 10 µM, partner max 1 µM)	0.531	0.695	0.452	0.66	0.987	0.375	0.602	0.75	0.999	0.89	0.52	0.657	0.482	0.645	0.0189	-0.0182	0.0061	-0.0661	0.008	0.011
COc1cccc(OCCCN)c1-c1cc(Nc2cnc(C#N)cn2)n[nH]1 [Prexasertib] + Cc1cc2ncnn2cc1Nc1ncc2c(n1)n(C1CCOCC1)c(=O)n2C [AZD7648] (first compound max 1 µM, 7x7, partner max 10 µM)	0.74	0.739	0.595	0.842	1	0.572	0.89	0.912	1	0.928	0.757	0.957	0.499	0.954	-0.0379	-0.02	-0.0474	0.0078	-0.0164	0.0194
COc1cccc(OCCCN)c1-c1cc(Nc2cnc(C#N)cn2)n[nH]1 [Prexasertib] + C=CCn1c(=O)c2cnc(Nc3ccc(N4CCN(C)CC4)cc3)nc2n1-c1cccc(C(C)(C)O)n1 [AZD1775] (first compound max 1 µM, partner max 1 µM)	0.799	0.748	0.666	0.881	1	0.713	0.866	0.892	1	0.971	0.925	0.967	0.685	0.985	0.0619	0.078	-0.024	0.0434	0.083	0.0849
CC1(C)CCC(CN2CCN(c3ccc(C(=O)NS(=O)(=O)c4ccc(NCC5CCOCC5)c([N+](=O)[O-])c4)c(Oc4cnc5[nH]ccc5c4)c3)CC2)=C(c2ccc(Cl)cc2)C1 [Venetoclax] + CCN(CCO)CCCOc1ccc2c(Nc3cc(CC(=O)Nc4cccc(F)c4)[nH]n3)ncnc2c1 [AZD2811] (first compound max 1 µM, 7x7, partner max 1 µM)	0.253	0.247	0.259	0.416	0.932	0.245	0.924	0.408	0.758	0.344	0.245	0.561	0.313	0.278	-0.0393	0.0315	-0.044	-0.0616	0.008	-0.049
Cc1cc2ncnn2cc1Nc1ncc2c(n1)n(C1CCOCC1)c(=O)n2C [AZD7648] + O=C(c1cc(Cc2n[nH]c(=O)c3ccccc23)ccc1F)N1CCN(C(=O)C2CC2)CC1 [Olaparib] (first compound max 10 µM, 7x7, partner max 10 µM)	0.07	0.415	0.323	0.252	0.34	0.182	0.918	0.637	0.307	0.575	0.219	0.158	0.152	0.143	-0.0056	0.06	-0.0563	-0.0295	-0.0502	-0.0516
Cc1c2c(nn1C)CSCc1cc(n(C)n1)CSc1cc(c3ccccc3c1)OCCCc1c(C(=O)O)n(C)c3c-2c(Cl)ccc13 [AZD5991] + C=CCn1c(=O)c2cnc(Nc3ccc(N4CCN(C)CC4)cc3)nc2n1-c1cccc(C(C)(C)O)n1 [AZD1775] (first compound max 1 µM, partner max 1 µM)	0.657	0.761	0.59	0.849	0.99	0.381	0.789	0.84	1	0.998	0.978	0.613	0.758	0.733	-0.0034	0.0402	0.0335	-0.0388	0.0226	-0.0647
CC1(C)CCC(CN2CCN(c3ccc(C(=O)NS(=O)(=O)c4ccc(NCC5CCOCC5)c([N+](=O)[O-])c4)c(Oc4cnc5[nH]ccc5c4)c3)CC2)=C(c2ccc(Cl)cc2)C1 [Venetoclax] + Cn1cnc2c(F)c(Nc3ccc(Br)cc3Cl)c(C(=O)NOCCO)cc21 [Selumetinib] (first compound max 1 µM, 7x7, partner max 3 µM)	0.109	0.464	0.165	0.191	0.871	0.323	0.855	0.138	0.375	0.429	0.133	0.221	0.407	0.2	-0.0354	-0.0129	-0.0732	-0.029	-0.0255	-0.0252
CN(C)CCCOc1ccc(-c2ccc3ncc4c(c3c2)n(C2CCOCC2)c(=O)n4C)cn1 [AZD0156] + C[C@@H]1COCCN1C2=NC(=NC(=C2)C3(CC3)[S@](=N)(=O)C)C4=C5C=CNC5=NC=C4 [AZD6738] (first compound max 1 µM, 7x7, partner max 10 µM)	0.558	0.713	0.632	0.778	0.912	0.696	0.905	0.807	0.977	0.727	0.491	0.806	0.264	0.964	0.0119	0.0509	-0.0388	0.0122	-0.0047	-0.01
Cc1cc2ncnn2cc1Nc1ncc2c(n1)n(C1CCOCC1)c(=O)n2C [AZD7648] + CCN(CCO)CCCOc1ccc2c(Nc3cc(CC(=O)Nc4cccc(F)c4)[nH]n3)ncnc2c1 [AZD2811] (first compound max 10 µM, 7x7, partner max 1 µM)	0.287	0.422	0.25	0.433	0.957	0.354	0.698	0.57	0.476	0.624	0.262	0.341	0.47	0.281	-0.0135	0.0834	-0.0199	-0.0162	0.0304	0.0238
Cc1c2c(nn1C)CSCc1cc(n(C)n1)CSc1cc(c3ccccc3c1)OCCCc1c(C(=O)O)n(C)c3c-2c(Cl)ccc13 [AZD5991] + CC1(C)CCC(CN2CCN(c3ccc(C(=O)NS(=O)(=O)c4ccc(NCC5CCOCC5)c([N+](=O)[O-])c4)c(Oc4cnc5[nH]ccc5c4)c3)CC2)=C(c2ccc(Cl)cc2)C1 [Venetoclax] (first compound max 1 µM, 7x7, partner max 1 µM)	0.463	0.233	0.152	0.287	0.998	0.18	0.839	0.323	1	1	0.618	0.138	0.758	0.209	-0.0106	-0.0068	-0.0423	-0.0422	-0.0317	-0.0417

From the supplement of paper PMC11061612
